Measurements from patent US20240190874A1, “SMALL MOLECULE DEGRADERS OF ANDROGEN RECEPTOR” (THE REGENTS OF THE UNIVERSITY OF MICHIGAN, priority 2021, published 2024).

Assays:
Type in all cases: cell-based
VCaP cells = experiment: Cellular potency (IC50) in VCaP cells; details: Homo sapiens, VCaP
Method: (§1) Biological Assays. LNCaP and VCaP cells used were purchased from American Type Culture Collection (ATCC). LNCaP were grown in RPMI 1640 (Invitrogen) and VCaP cells were grown in DMEM with Glutamax (Invitrogen). All of the cells were supplemented with 10% fetal bovine serum (Invitrogen) at 37° C. in a humidified 5% CO2 incubator.

AR = molecular target: T1, AR (Homo sapiens, UniProt P10275); experiment: Degradation of AR in VCaP cells; details: VCaP cells; for Dmax: VCaP
T1 construct: Degradation of AR; Cellular potency; host or cells: VCaP cells
T1 sequence (P10275 1-920): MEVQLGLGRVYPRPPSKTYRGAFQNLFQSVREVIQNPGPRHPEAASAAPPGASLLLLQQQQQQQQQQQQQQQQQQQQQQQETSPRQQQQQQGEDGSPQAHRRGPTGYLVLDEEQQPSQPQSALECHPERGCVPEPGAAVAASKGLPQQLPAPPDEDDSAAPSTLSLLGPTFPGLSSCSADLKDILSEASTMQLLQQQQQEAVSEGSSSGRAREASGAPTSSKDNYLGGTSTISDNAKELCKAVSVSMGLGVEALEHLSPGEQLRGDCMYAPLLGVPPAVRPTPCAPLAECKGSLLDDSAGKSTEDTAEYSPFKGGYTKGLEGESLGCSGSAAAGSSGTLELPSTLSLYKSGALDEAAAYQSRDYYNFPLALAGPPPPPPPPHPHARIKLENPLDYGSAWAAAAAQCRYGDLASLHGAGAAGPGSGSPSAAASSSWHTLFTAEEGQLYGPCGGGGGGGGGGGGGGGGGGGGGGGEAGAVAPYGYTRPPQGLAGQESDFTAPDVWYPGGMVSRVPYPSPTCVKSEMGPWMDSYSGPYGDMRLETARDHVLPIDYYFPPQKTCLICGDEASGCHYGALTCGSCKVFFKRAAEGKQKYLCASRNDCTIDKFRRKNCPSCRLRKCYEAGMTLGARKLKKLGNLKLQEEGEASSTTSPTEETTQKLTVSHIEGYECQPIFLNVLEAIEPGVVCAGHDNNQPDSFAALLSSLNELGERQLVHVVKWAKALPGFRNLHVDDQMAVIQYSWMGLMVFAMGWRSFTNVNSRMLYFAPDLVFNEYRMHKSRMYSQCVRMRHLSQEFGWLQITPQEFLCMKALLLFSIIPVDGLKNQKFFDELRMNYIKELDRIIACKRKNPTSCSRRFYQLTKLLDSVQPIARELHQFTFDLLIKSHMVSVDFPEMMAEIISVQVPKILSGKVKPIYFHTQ
Method: as §1

LNCaP cells = experiment: Cellular potency (IC50) in LNCaP cells; details: Homo sapiens, LNCaP
Method: as §1

SMILES	IC50 (VCaP cells) [µM]	DC50 (AR) [µM]	Dmax (AR) [%]	IC50 (LNCaP cells) [µM]
C[C@H]1CC2(CCN(c3ccc(OC4CCN(C5CN(c6ccc7c(c6)C(=O)N(C6CCC(=O)NC6=O)C7=O)C5)CC4)nn3)CC2)CN1c1ccc(C#N)c(Cl)c1 (stereo partly drawn) [compound 62]	< 0.01	< 0.001	> 90	< 0.01
C[C@H]1CC2(CCN(c3ccc(OC4CCN(C5CN(c6ccc7c(c6)C(=O)N(C6CCC(=O)NC6=O)C7=O)C5)CC4)nc3)CC2)CN1c1ccc(C#N)c(Cl)c1 (stereo partly drawn) [compound 63]	< 0.01	< 0.001	> 90	< 0.01
C[C@H]1CC2(CCN(c3ccc(OC4CN(C5CN(c6ccc7c(c6)C(=O)N(C6CCC(=O)NC6=O)C7=O)C5)C4)cn3)CC2)CN1c1ccc(C#N)c(Cl)c1 (stereo partly drawn) [compound 69]	< 0.01	< 0.001	> 90	< 0.01
C[C@H]1CC2(CCN(c3ccc(OC4CN(C5CCN(c6ccc7c(c6)C(=O)N(C6CCC(=O)NC6=O)C7=O)CC5)C4)cn3)CC2)CN1c1ccc(C#N)c(Cl)c1 (stereo partly drawn) [compound 70]	< 1	< 0.1	50 to 70	< 1
C[C@H]1CC2(CCN(c3ccc(OC4CN(C5CN(c6ccc7c(c6)C(=O)N(C6CCC(=O)NC6=O)C7=O)C5)C4)nc3)CC2)CN1c1ccc(C#N)c(Cl)c1 (stereo partly drawn) [compound 71]	< 1	< 0.1	50 to 70	< 1
C[C@H]1CC2(CCN(c3ccc(OC4CN(C5CCN(c6ccc7c(c6)C(=O)N(C6CCC(=O)NC6=O)C7=O)CC5)C4)nc3)CC2)CN1c1ccc(C#N)c(Cl)c1 (stereo partly drawn) [compound 72]	< 1	< 0.1	50 to 70	< 1
C[C@H]1CC2(CCN(c3ccc(OC4CN(C5CN(c6ccc7c(c6)C(=O)N(C6CCC(=O)NC6=O)C7=O)C5)C4)nn3)CC2)CN1c1ccc(C#N)c(Cl)c1 (stereo partly drawn) [compound 73]	< 1	< 0.1	50 to 70	< 1
C[C@H]1CC2(CCN(c3ccc(OC4CN(C5CCN(c6ccc7c(c6)C(=O)N(C6CCC(=O)NC6=O)C7=O)CC5)C4)nn3)CC2)CN1c1ccc(C#N)c(Cl)c1 (stereo partly drawn) [compound 74]	< 1	< 0.1	50 to 70	< 1
C[C@H]1CC2(CCN(c3cnc(N4CCN(CC5CN(c6ccc7c(c6)C(=O)N(C6CCC(=O)NC6=O)C7=O)C5)CC4)nc3)CC2)CN1c1ccc(C#N)c(Cl)c1 (stereo partly drawn) [compound 82]	< 0.01	< 0.001	> 90	< 0.01
C[C@H]1CC2(CCN(c3cnc(N4CCN(CC5CCN(c6ccc7c(c6)C(=O)N(C6CCC(=O)NC6=O)C7=O)CC5)CC4)nc3)CC2)CN1c1ccc(C#N)c(Cl)c1 (stereo partly drawn) [compound 83]	< 0.01	< 0.001	> 90	< 0.01
C[C@H]1CC2(CCN(c3ccc(N4CCC(OC5CN(c6ccc7c(c6)C(=O)N(C6CCC(=O)NC6=O)C7=O)C5)CC4)cc3)CC2)CN1c1ccc(C#N)c(Cl)c1 (stereo partly drawn) [compound 90]	< 0.01	< 0.001	> 90	< 0.01
C[C@H]1CC2(CCN(c3ccc(N4CCC(OC5CN(c6ccc7c(c6)C(=O)N(C6CCC(=O)NC6=O)C7=O)C5)CC4)nc3)CC2)CN1c1ccc(C#N)c(Cl)c1 (stereo partly drawn) [compound 91]	< 0.01	< 0.001	> 90	< 0.01
C[C@H]1CC2(CCN(c3ccc(N4CCC(OC5CN(c6ccc7c(c6)C(=O)N(C6CCC(=O)NC6=O)C7=O)C5)CC4)cn3)CC2)CN1c1ccc(C#N)c(Cl)c1 (stereo partly drawn) [compound 92]	< 0.01	< 0.001	> 90	< 0.01
C[C@H]1CC2(CCN(c3ccc(N4CCC(N(C)C5CN(c6ccc7c(c6)C(=O)N(C6CCC(=O)NC6=O)C7=O)C5)CC4)cc3)CC2)CN1c1ccc(C#N)c(Cl)c1 (stereo partly drawn) [compound 119, 2-chloro-4-((3S)-8-(4-(4-((1-(2-(2,6-dioxopiperidin-3-yl)-1,3-dioxoisoindolin-5-yl)azetidin-3-yl)(methyl)amino)piperidin-1-yl)phenyl)-3-methyl-2,8-diazaspiro[4.5]decan-2-yl)benzonitrile]	< 0.01	–	> 90	< 0.01
C[C@H]1CC2(CCN(c3ccc(N4CCC(NC5CN(c6ccc7c(c6)C(=O)N(C6CCC(=O)NC6=O)C7=O)C5)CC4)cc3)CC2)CN1c1ccc(C#N)c(Cl)c1 (stereo partly drawn) [compound 120]	< 0.01	< 0.001	> 90	< 0.01
C[C@H]1CC2(CCN(c3ccc(N4CC(N(C)C5CN(c6ccc7c(c6)C(=O)N(C6CCC(=O)NC6=O)C7=O)C5)C4)cc3)CC2)CN1c1ccc(C#N)c(Cl)c1 (stereo partly drawn) [compound 121]	< 0.1	< 0.1	70 to 90	< 0.1
C[C@H]1CC2(CCN(c3ccc(N4CCC(N(C)C5CN(c6ccc7c(c6)C(=O)N(C6CCC(=O)NC6=O)C7=O)C5)CC4)cn3)CC2)CN1c1ccc(C#N)c(Cl)c1 (stereo partly drawn) [compound 123]	< 0.01	< 0.001	> 90	< 0.01
C[C@H]1CC2(CCN(c3ccc(N4CCC(N(C)C5CN(c6ccc7c(c6)C(=O)N(C6CCC(=O)NC6=O)C7=O)C5)CC4)nc3)CC2)CN1c1ccc(C#N)c(Cl)c1 (stereo partly drawn) [compound 124]	< 0.1	< 0.01	70 to 90	< 0.1
C[C@H]1CC2(CCN(c3ccc(N4CCC(N(C)C5CN(c6ccc7c(c6)C(=O)N(C6CCC(=O)NC6=O)C7=O)C5)CC4)nn3)CC2)CN1c1ccc(C#N)c(Cl)c1 (stereo partly drawn) [compound 125]	< 0.01	< 0.01	> 90	< 0.01
C[C@H]1CC2(CCN(c3ccc(OC4CCN(C5CN(c6cc7c(cc6F)C(=O)N(C6CCC(=O)NC6=O)C7=O)C5)CC4)cc3)CC2)CN1c1ccc(C#N)c(Cl)c1 (stereo partly drawn) [compound 131]	< 0.01	< 0.001	> 90	< 0.01
C[C@H]1CC2(CCN(c3ccc(OC4CCN(C5CN(c6cc7c(cc6F)C(=O)N(C6CCC(=O)NC6=O)C7=O)C5)CC4)cn3)CC2)CN1c1ccc(C#N)c(Cl)c1 (stereo partly drawn) [compound 132]	< 0.01	< 0.001	> 90	< 0.01
C[C@H]1CC2(CCN(c3ccc(OC4CCN(C5CN(c6cc7c(cc6F)C(=O)N(C6CCC(=O)NC6=O)C7=O)C5)CC4)nc3)CC2)CN1c1ccc(C#N)c(Cl)c1 (stereo partly drawn) [compound 133]	< 0.01	< 0.001	> 90	< 0.01
C[C@H]1CC2(CCN(c3ccc(OC4CCN(C5CN(c6cc7c(cc6F)C(=O)N(C6CCC(=O)NC6=O)C7=O)C5)CC4)nn3)CC2)CN1c1ccc(C#N)c(Cl)c1 (stereo partly drawn) [compound 134]	< 0.01	< 0.001	> 90	< 0.01
C[C@H]1CC2(CCN(c3ccc(C(=O)N4CCN(C5CN(c6ccc7c(c6)C(=O)N(C6CCC(=O)NC6=O)C7=O)C5)CC4)s3)CC2)CN1c1ccc(C#N)c(Cl)c1 (stereo partly drawn) [compound 135]	< 0.1	< 0.01	70 to 90	< 0.1
C[C@H]1CC2(CCN(c3ncc(C(=O)N4CCN(C5CN(c6ccc7c(c6)C(=O)N(C6CCC(=O)NC6=O)C7=O)C5)CC4)s3)CC2)CN1c1ccc(C#N)c(Cl)c1 (stereo partly drawn) [compound 136]	< 0.01	< 0.001	> 90	< 0.01
C[C@H]1CC2(CCN(c3cnc(C(=O)N4CCN(C5CN(c6ccc7c(c6)C(=O)N(C6CCC(=O)NC6=O)C7=O)C5)CC4)s3)CC2)CN1c1ccc(C#N)c(Cl)c1 (stereo partly drawn) [compound 137]	< 0.1	< 0.01	70 to 90	< 0.1
C[C@H]1CC2(CCN(c3ccc(C(=O)N4CCC(N5Cc6cc7c(cc6C5)C(=O)N(C5CCC(=O)NC5=O)C7=O)CC4)s3)CC2)CN1c1ccc(C#N)c(Cl)c1 (stereo partly drawn) [compound 138]	< 0.1	< 0.01	70 to 90	< 0.1
C[C@H]1CC2(CCN(c3ncc(C(=O)N4CCC(N5Cc6cc7c(cc6C5)C(=O)N(C5CCC(=O)NC5=O)C7=O)CC4)s3)CC2)CN1c1ccc(C#N)c(Cl)c1 (stereo partly drawn) [compound 139]	< 0.1	< 0.01	70 to 90	< 0.1
C[C@H]1CC2(CCN(c3ccc(S(=O)(=O)C4CN(C(=O)CN5Cc6cc7c(cc6C5)C(=O)N(C5CCC(=O)NC5=O)C7=O)C4)cc3)CC2)CN1c1ccc(C#N)c(Cl)c1 (stereo partly drawn) [compound 149]	< 0.1	< 0.001	–	< 0.01
